Several values for one entry are separate records, joined by “and”; a condition that tells them apart may be missing. Equal values may be shown once.
What was measured:
D(3) dopamine receptor = D(3) dopamine receptor (Homo sapiens, UniProt P35462); assay: biochemical
Description: Displacement of [3H]spiperone from human D3 receptor expressed in CHO cells

D(2) dopamine receptor [1] = biological target: T1, D(2) dopamine receptor (Homo sapiens, UniProt P14416); assay: biochemical
Description: Displacement of [3H]spiperone from human D2 short receptor expressed in CHO cells

D(2) dopamine receptor [2] = biological target: T1, D(2) dopamine receptor; assay: biochemical; remark: listed apart in the source
Description: Displacement of [3H]spiperone from human D2 long receptor expressed in CHO cells

D(4) dopamine receptor = biological target: T2, D(4) dopamine receptor (Homo sapiens, UniProt P21917); assay: Displacement of [3H]spiperone from human D4 receptor expressed in CHO cells; type: cell-based
T2 sequence (P21917 whole entry): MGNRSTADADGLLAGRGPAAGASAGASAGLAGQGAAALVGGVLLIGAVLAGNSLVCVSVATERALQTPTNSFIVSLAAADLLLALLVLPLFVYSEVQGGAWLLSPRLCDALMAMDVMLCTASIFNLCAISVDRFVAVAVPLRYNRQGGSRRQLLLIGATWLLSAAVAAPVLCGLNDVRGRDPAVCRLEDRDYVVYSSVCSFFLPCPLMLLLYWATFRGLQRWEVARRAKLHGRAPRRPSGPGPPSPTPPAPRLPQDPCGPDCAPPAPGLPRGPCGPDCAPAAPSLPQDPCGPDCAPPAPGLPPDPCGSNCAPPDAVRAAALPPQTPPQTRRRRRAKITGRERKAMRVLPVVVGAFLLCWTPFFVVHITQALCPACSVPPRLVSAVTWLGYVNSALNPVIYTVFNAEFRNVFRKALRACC

Chain of D(3) dopamine receptor (P35462 whole entry): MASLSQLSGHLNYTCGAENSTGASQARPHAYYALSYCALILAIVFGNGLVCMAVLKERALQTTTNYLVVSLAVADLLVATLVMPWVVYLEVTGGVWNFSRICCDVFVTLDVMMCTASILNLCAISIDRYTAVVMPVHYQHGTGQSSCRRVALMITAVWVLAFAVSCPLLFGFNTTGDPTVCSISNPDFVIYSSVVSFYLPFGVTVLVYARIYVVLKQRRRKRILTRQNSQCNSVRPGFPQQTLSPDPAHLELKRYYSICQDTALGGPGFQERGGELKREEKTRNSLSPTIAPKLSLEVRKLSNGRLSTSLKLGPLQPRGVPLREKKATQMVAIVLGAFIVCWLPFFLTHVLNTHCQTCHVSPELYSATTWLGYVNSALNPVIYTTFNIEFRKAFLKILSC
T1 sequence (P14416 whole entry): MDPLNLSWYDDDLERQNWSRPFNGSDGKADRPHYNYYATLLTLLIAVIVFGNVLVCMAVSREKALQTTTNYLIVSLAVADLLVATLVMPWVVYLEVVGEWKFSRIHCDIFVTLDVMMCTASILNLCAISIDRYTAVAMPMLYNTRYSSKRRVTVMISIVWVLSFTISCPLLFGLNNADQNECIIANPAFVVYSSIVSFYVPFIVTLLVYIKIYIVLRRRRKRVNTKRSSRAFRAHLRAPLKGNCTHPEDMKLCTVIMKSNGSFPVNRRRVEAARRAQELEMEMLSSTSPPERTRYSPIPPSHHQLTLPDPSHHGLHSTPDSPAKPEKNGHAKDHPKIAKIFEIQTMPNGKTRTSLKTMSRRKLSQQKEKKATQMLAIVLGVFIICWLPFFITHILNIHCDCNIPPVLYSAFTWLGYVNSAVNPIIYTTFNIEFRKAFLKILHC

Structure (SMILES) | Ki (D(3) dopamine receptor) | Ki (D(2) dopamine receptor [1]) | Ki (D(2) dopamine receptor [2]) | Ki (D(4) dopamine receptor)
O=C(NCCCCN1CCN(c2cccc(Cl)c2Cl)CC1)c1cc2ccc1CCc1ccc(cc1)CC2 | 3.6 nM | 140 nM | 220 nM | 120 nM
COc1ccccc1N1CCN(CCCCNC(=O)c2cc3c4ccc(c3o2)CCc2ccc(cc2)CC4)CC1 | 16 nM | – | 170 nM | 140 nM
COc1c(Cl)cccc1N1CCN(CCCCNC(=O)c2cc3ccc2CCc2ccc(cc2)CC3)CC1 | 0.46 nM | 28 nM | 42 nM | 33 nM

The remaining lines, values ahead:

Ki (D(3) dopamine receptor) | Ki (D(2) dopamine receptor [1]) | Ki (D(2) dopamine receptor [2]) | Ki (D(4) dopamine receptor) | Structure (SMILES)
1.9 nM | 35 nM | – | 18 nM | O=C(NCCCCN1CCN(c2cccc(F)c2F)CC1)c1cc2ccc1CCc1ccc(cc1)CC2
– | 13 nM and 5.6 nM | 15 nM and 11 nM | 5.4 nM and 9.5 nM | COc1ccccc1N1CCN(CCCCNC(=O)c2cc3ccc2CCc2ccc(cc2)CC3)CC1
